Measurements taken from patent US8664220B2, “Polycyclic compounds as lysophosphatidic acid receptor antagonists” (Amira Pharmaceuticals, Inc., priority 2009, dated 2014).
pIC50: −log10 of the molar value.

Target: T1, human LPA1 (Homo sapiens, UniProt Q92633)
T1 construct: the full-length cDNA for human LPA1 was obtained by PCR of the reverse transcription reaction; expressed in transfected cells
Experiment: LPA1 calcium flux assay
Format: cell-based
Settings: human LPA1 expressing CHO cells, stimulated with 10 nM LPA; read-out: HLPA1 Ca Flux IC50
Protocol: Establishment of a CHO Cell Line Stably Expressing Human LPA1
A 1.1 kb cDNA encoding the human LPA1 receptor was cloned from human lung.
Human lung RNA (Clontech Laboratories, Inc. USA) was reverse transcribed using the RETROscript kit (Ambion, Inc.) and the full-length cDNA for human LPA1 was obtained by PCR of the reverse transcription reaction. The nucleotide sequence of the cloned human LPA1 was determined by sequencing and confirmed to be identical to the published human LPA1 sequence (An et al. Biochem. Biophys. Res. Commun. 231:619 (1997). The cDNA was cloned into the pcDNA5/FRT expression plasmid and transfected in CHO cells using lipofectamine 2000 (Invitrogen Corp., USA). Clones stably expressing human LPA1 were selected using hygromycin and identified as cells that show Ca-influx in response to LPA.
LPA1 and LPA3 Calcium Flux Assays
Human LPA1 or LPA3 expressing CHO cells are seeded at 20,000-45,000 cells per well in a 96-well poly-D-lysine coated plate one or two days before the assay. Prior to the assay, the cells are washed once with PBS and then cultured in serum-free media overnight. On the day of the assay, a calcium indicator dye (Calcium 4, Molecular Devices) in assay buffer (HBSS with Ca^2+ and Mg^2+ and containing 20 mM Hepes and 0.3% fatty-acid free human serum albumin) is added to each well and incubation continued for 1 hour at 37° C. 10 μl of test compounds in 2.5% DMSO are added to the cells and incubation continued at room temperature for 30 minutes. Cells are the stimulated by the addition of 10 nM LPA and intracellular Ca^2+ measured using the Flexstation 3 (Molecular Devices). IC50s are determined using Graphpad prism analysis of drug titration curves.

T1 sequence (Q92633 whole entry): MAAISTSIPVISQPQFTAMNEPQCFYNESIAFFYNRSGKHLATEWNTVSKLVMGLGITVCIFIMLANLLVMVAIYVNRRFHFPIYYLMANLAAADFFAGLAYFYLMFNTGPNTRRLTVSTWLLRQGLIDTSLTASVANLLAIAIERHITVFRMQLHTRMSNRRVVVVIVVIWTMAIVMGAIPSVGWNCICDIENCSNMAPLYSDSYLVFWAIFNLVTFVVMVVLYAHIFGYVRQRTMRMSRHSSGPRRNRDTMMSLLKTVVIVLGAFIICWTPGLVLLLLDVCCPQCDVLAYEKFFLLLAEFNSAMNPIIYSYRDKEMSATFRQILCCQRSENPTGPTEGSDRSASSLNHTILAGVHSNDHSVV

| SMILES | pIC50 |
| --- | --- |
| Cc1noc(-c2ccc(-c3ccc(C4(C(=O)O)CC4)cc3)cc2)c1Nc1nccc(-c2ccccc2)n1 [Compound 1-115, 1-{4′-[3-Methyl-4-(4-phenyl-pyrimidin-2-ylamino)-isoxazol-5-yl]-biphenyl-4-yl}-cyclopropanecarboxylic acid] | > 6.52 |
| Cc1noc(-c2ccc(-c3ccc(C4(C(=O)O)CC4)cc3)cc2)c1Nc1cccc(-c2c(Cl)cccc2Cl)n1 [Compound 1-150, 1-(4′-{4-[6-(2,6-Dichloro-phenyl)-pyridin-2-ylamino]-3-methyl-isoxazol-5-yl}-biphenyl-4-yl)-cyclopropanecarboxylic acid] | > 6.52 |
| COc1cncc(-c2cccc(Nc3c(C)noc3-c3ccc(-c4ccc(C5(C(=O)O)CC5)cc4)cc3)c2)c1 [Compound 1-104, 1-(4′-{4-[3-(5-Methoxy-pyridin-3-yl)-phenylamino]-3-methyl-isoxazol-5-yl}-biphenyl-4-yl)-cyclopropanecarboxylic acid] | > 6.52 |
| Cc1noc(-c2ccc(-c3ccc(CC(=O)O)cc3)cc2)c1C(O)c1cn(Cc2cccc(C(F)(F)F)c2)nn1 (stereo not drawn) [Compound 1-51, [4′-(4-{Hydroxy-[1-(3-trifluoromethyl-benzyl)-1H-[1,2,3]triazol-4-yl]-methyl}-3-methyl-isoxazol-5-yl)-biphenyl-4-yl]acetic acid] | < 4.30 |
| Cc1noc(-c2ccc(-c3ccc(C4(C(=O)O)CC4)cc3)cc2)c1C(O)c1cncc(-c2ccccc2)c1 (stereo not drawn) [Compound 1-129, 1-(4′-{4-[Hydroxy-(5-phenyl-pyridin-3-yl)-methyl]-3-methyl-isoxazol-5-yl}-biphenyl-4-yl)-cyclopropanecarboxylic acid] | > 6.52 |
| Cc1noc(-c2ccc(-c3ccc(C4(C(=O)O)CC4)cc3)cc2)c1Nc1cccc(C(=O)NC2CC2)n1 [Compound 1-137, 1-{4′-[4-(6-Cyclopropylcarbamoyl-pyridin-2-ylamino)-3-methyl-isoxazol-5-yl]-biphenyl-4-yl}-cyclopropanecarboxylic acid] | > 6.52 |
| Cc1noc(-c2ccc(-c3ccc(C4(C(=O)O)CC4)cc3)cc2)c1Nc1cccc(OC2CCC2)n1 [Compound 1-139, 1-{4′-[4-(6-Cyclobutoxy-pyridin-2-ylamino)-3-methyl-isoxazol-5-yl]-biphenyl-4-yl}-cyclopropanecarboxylic acid] | > 6.52 |
| Cc1noc(-c2ccc(-c3ccc(C4(C(=O)O)CC4)cc3)cc2)c1C(O)c1cncc(-c2cccc(C(F)(F)F)c2)c1 (stereo not drawn) [Compound 1-130, 1-[4′-(4-{Hydroxy-[5-(3-trifluoromethyl-phenyl)-pyridin-3-yl]-methyl}-3-methyl-isoxazol-5-yl)-biphenyl-4-yl]-cyclopropanecarboxylic acid] | > 6.52 |
| Cc1noc(-c2ccc(-c3ccc(C4(C(=O)NS(C)(=O)=O)CC4)cc3)cc2)c1C(O)c1cn(Cc2cccc(C(F)(F)F)c2)nn1 (stereo not drawn) [Compound 3-3, N-{1-[4′-(4-{Hydroxy-[1-(3-trifluoromethyl-benzyl)-1H-[1,2,3]triazol-4-yl]-methyl}-3-methyl-isoxazol-5-yl)-biphenyl-4-yl]-cyclopropanecarbonyl}-methanesulfonamide] | 4.30 to 6.00 |
| Cc1noc(-c2ccc(-c3ccc(C4(C(=O)O)CC4)cc3)cc2)c1Cc1nnc(Cc2ccccc2)o1 [Compound 1-29, 1-{4′-[4-(5-Benzyl-[1,3,4]oxadiazol-2-ylmethyl)-3-methyl-isoxazol-5-yl]-biphenyl-4-yl}-cyclopropanecarboxylic acid] | > 6.52 |
| Cc1noc(-c2ccc(-c3ccc(C4(CC(=O)O)CC4)cc3)cc2)c1NC(C)c1cc(-c2ccccc2)no1 (single isomer, unassigned) [Compound 1-44, [1-(4′-{3-Methyl-4-[1-(3-phenyl-isoxazol-5-yl)-ethylamino]-isoxazol-5-yl}-biphenyl-4-yl)-cyclopropyl]-acetic acid] | > 6.52 |
| Cc1noc(-c2ccc(-c3ccc(C4(C(=O)O)CC4)cc3)cc2)c1Cn1nnc(-c2ccccc2)n1 [Compound 1-21, 1-{4′-[3-Methyl-4-(5-phenyl-tetrazol-2-ylmethyl)-isoxazol-5-yl]-biphenyl-4-yl}-cyclopropanecarboxylic acid] | > 6.52 |
| Cc1noc(-c2ccc(-c3ccc(C4(C(=O)O)CC4)cc3)cc2)c1Cn1cc(-c2ccccc2)nn1 [Compound 1-6, 1-{4′-[3-Methyl-4-(4-phenyl-[1,2,3]triazol-1-ylmethyl)-isoxazol-5-yl]-biphenyl-4-yl}-cyclopropanecarboxylic acid] | > 6.52 |
| Cc1noc(-c2ccc(-c3ccc(C4(C(=O)O)CC4)cc3)cc2)c1CN1CCC(c2ccccc2)C1 (stereo not drawn) [Compound 1-17, 1-{4′-[3-Methyl-4-(3-phenyl-pyrrolidin-1-ylmethyl)-isoxazol-5-yl]-biphenyl-4-yl}-cyclopropanecarboxylic acid] | > 6.52 |
| Cc1noc(-c2ccc(-c3ccc(C4(C(=O)O)CC4)cc3)cc2)c1CN1CC(c2ccccc2)CC1=O (stereo not drawn) [Compound 1-7, 1-{4′-[3-Methyl-4-(2-oxo-4-phenyl-pyrrolidin-1-ylmethyl)-isoxazol-5-yl]-biphenyl-4-yl}-cyclopropanecarboxylic acid] | > 6.52 |
| Cc1noc(-c2ccc(-c3ccc(C4(C(=O)O)CC4)cc3)cc2)c1Nc1cccc(-c2cccc(Cl)c2Cl)n1 [Compound 1-158, 1-(4′-{4-[6-(2,3-Dichloro-phenyl)-pyridin-2-ylamino]-3-methyl-isoxazol-5-yl}-biphenyl-4-yl)-cyclopropanecarboxylic acid] | > 6.52 |
| Cc1noc(-c2ccc(-c3ccc(C4(CC(=O)O)CC4)cc3)cc2)c1NC(C)Cc1ccc(OCc2ccc(C(F)(F)F)cc2)cc1 (stereo not drawn) [Compound 1-45, {1-[4′-(3-Methyl-4-{1-methyl-2-[4-(4-trifluoromethyl-benzyloxy)-phenyl]-ethylamino}-isoxazol-5-yl)-biphenyl-4-yl]-cyclopropyl}-acetic acid] | 6.00 to 6.52 |
| Cc1noc(-c2ccc(-c3ccc(CCC(=O)O)cc3)cc2)c1C(O)c1cn(Cc2ccccc2)nn1 (stereo not drawn) [Compound 1-49, 3-(4′-{4-[(1-Benzyl-1H-[1,2,3]triazol-4-yl)-hydroxy-methyl]-3-methyl-isoxazol-5-yl}-biphenyl-4-yl)-propionic acid] | > 6.52 |
| Cc1noc(-c2ccc(-c3ccc(C4(C(=O)O)CC4)cc3)cc2)c1Nc1cccc(-c2ccccc2)n1 [Compound 1-68, 1-{4′-[3-Methyl-4-(6-phenyl-pyridin-2-ylamino)-isoxazol-5-yl]-biphenyl-4-yl}-cyclopropanecarboxylic acid] | > 6.52 |
| Cc1noc(-c2ccc(-c3ccc(C4(C(=O)O)CC4)cc3)cc2)c1CN1C(=O)OC[C@@H]1Cc1ccccc1 [Compound 1-12, 1-{4′-[4-((S)-4-Benzyl-2-oxo-oxazolidin-3-ylmethyl)-3-methyl-isoxazol-5-yl]-biphenyl-4-yl}-cyclopropanecarboxylic acid] | < 4.30 |
| Cc1noc(-c2ccc(-c3ccc(C4(C(=O)O)CC4)cc3)cc2)c1C1CC1C(=O)N(C)[C@H](C)c1ccccc1 (single isomer, unassigned) [Compound 1-27] | 6.00 to 6.52 |
| Cc1noc(-c2ccc(-c3ccc(C4(C(=O)O)CC4)cc3)cc2)c1Nc1cccc(-c2ccccc2C#N)n1 [Compound 1-91, 1-(4′-{4-[6-(2-Cyano-phenyl)-pyridin-2-ylamino]-3-methyl-isoxazol-5-yl}-biphenyl-4-yl)-cyclopropanecarboxylic acid] | > 6.52 |
| Cc1noc(-c2ccc(-c3ccc(C4(C(=O)O)CC4)cc3)cc2)c1C(O)c1cccc(-c2ccccc2)n1 (stereo not drawn) [Compound 1-110, 1-(4′-{4-[Hydroxy-(6-phenyl-pyridin-2-yl)-methyl]-3-methyl-isoxazol-5-yl}-biphenyl-4-yl)-cyclopropanecarboxylic acid] | > 6.52 |
| COc1ccc(-c2cccc(Nc3c(C)noc3-c3ccc(-c4ccc(C5(C(=O)O)CC5)cc4)cc3)c2)cn1 [Compound 1-102, 1-(4′-{4-[3-(6-Methoxy-pyridin-3-yl)-phenylamino]-3-methyl-isoxazol-5-yl}-biphenyl-4-yl)-cyclopropanecarboxylic acid] | > 6.52 |
| Cc1noc(-c2ccc(-c3ccc(C4(C(=O)O)CC4)cc3)cc2)c1Nc1cccc(Sc2ccccc2)n1 [Compound 1-126, 1-{4′-[3-Methyl-4-(6-phenylsulfanyl-pyridin-2-ylamino)-isoxazol-5-yl]-biphenyl-4-yl}-cyclopropanecarboxylic acid] | > 6.52 |
| COc1cccc(-c2cccc(Nc3c(C)noc3-c3ccc(-c4ccc(C5(C(=O)O)CC5)cc4)cc3)n2)c1 [Compound 1-88, 1-(4′-{4-[6-(3-Methoxy-phenyl)-pyridin-2-ylamino]-3-methyl-isoxazol-5-yl}-biphenyl-4-yl)-cyclopropanecarboxylic acid] | > 6.52 |
| Cc1noc(-c2ccc(-c3ccc(C4(C(=O)O)CC4)cc3)cc2)c1NC1CCN(Cc2ccccc2)CC1 [Compound 1-36, 1-{4′-[4-(1-Benzyl-piperidin-4-ylamino)-3-methyl-isoxazol-5-yl]-biphenyl-4-yl}-cyclopropanecarboxylic acid] | 4.30 to 6.00 |
